Test results from patent US20030235583A1, “Combined use of a modulator of CD3 and a beta cell resting compound” (priority 2002, published 2003).

Assays:
[1] = test system: human islets; test: apoptosis of human islets incubated in high glucose; type: cell-based; conditions: co-incubated with compound vs not co-incubated
Source text: Another potential way to intervene in the destruction of beta-cells in the development of Type 1 diabetes is by treatment with compounds that inhibit insulin secretion, thereby inducing beta-cell rest.

[2] = test system: beta-cells; conditions: 3 months treatment; cited from earlier work

Compound | apoptosis, or programmed cell death, of human islets [1] | residual C-peptide, a marker of beta-cell function [2]
CC1(NC2=NS(=O)(=O)c3sc(Cl)cc3N2)CC1 [6-chloro-3-(1-methylcyclopropyl)amino-4H-thieno[3,2-e]-1,2,4-thiadiazine 1,1-dioxide] | significantly less apoptosis | 
CC1=NS(=O)(=O)c2cc(Cl)ccc2N1 [diazoxide] |  | preservation of residual C-peptide
